These results are taken from US20060142337A1, “Piperidine derivative and use thereof” (priority 2004, published 2006).

In one data set the target is T1, substance P receptor (Homo sapiens, UniProt P25103).
T1 construct: endogenous in cells; host or cells: IM-9 human lymphoblast cells (membrane preparation)
The experiment in a line: Radioligand receptor binding inhibitory activity using receptor from human lymphoblast cells (IM-9). Conditions: [125I]-BHSP binding, receptor from IM-9 cells, 25 C, 30 min. Here is the method:
Radioligand receptor binding inhibitory activity (Binding inhibitory activity using receptor from human lymphoblast cells (IM-9))
The method of M. A. Cascieri et al., “Molecular Pharmacology 42, p. 458 (1992)” was modified and used. The receptor was. prepared from human lymphoblast cells (IM-9). IM-9 cells (2×10^5 cells/mL) were incubated for 3 days (one liter), which was then subjected to centrifuge for 5 min. at 500×G to obtain cell pellets. The obtained pellets were washed once with phosphate buffer (Flow Laboratories, CAT. No. 28-103-05), which were then homogenized using Polytron homogenizer (“Kinematika”, Germany) in 30 mL of 50 mM Tris-HCl buffer (pH 7.4) containing 120 mM sodium chloride, 5 mM potassium chloride, 2 μg/mL chymostatin, 40 μg/mL bacitracin, 5 μg/mL phosphoramidon, 0.5 mM phenylmethylsulfonyl fluoride, 1 mM ethylenediamine tetra-acetate, which was subjected to centrifuge at 40,000×G for 20 min. The residue was washed twice with 30 mL of the buffer, which was then preserved frozen (−80° C.) as a specimen of the receptor.
The specimen was suspended in a reaction buffer (50 mM Tris-HCl buffer (pH 7.4), 0.02% bovine serum albumin, 1 mM phenylmethylsulfonyl fluoride, 2 μg/mL chymostatin, 40 μg/mL bacitracin and 3 mM manganese chloride) to have protein in the concentration of 0.5 mg/mL of protein and 100 μL portion of the suspension was used in the reaction. After addition of the sample and ^125]-BHSP (0.46 KBq), the reaction was allowed to proceed in 0.2 mL of reaction buffer at […] for 30 min. The amount of nonspecific binding was determined by adding substance P at a final concentration of 2×10^−6 M.
After the reaction, using a cell harvester (290 PHD, Cambridge Technology, Inc, U.S.A.), filtration was carried out through a glass filter (GF/B, Whatman, U.S.A.), which was immersed in 0.1% polyethyleneimine for 24 hrs. and dried. After washing three times with 250 μL of 50 mM Tris-HCl buffer (pH 7.4) containing 0.02% bovine serum albumin, the radioactivity remaining on the filter was. determined with a gamma counter.
The antagonistic activity of each compound obtained in Examples was determined in terms of the concentration necessary to cause 50% inhibition (IC50 value) under the above-described conditions, and the results were shown in Table 14.
The radio ligand means substance P labeled with [^125I].

For data set [1], the system named is urethane anesthetized male guinea pigs. The experiment in a line: Bladder capacity increasing action in urethane anesthetized guinea pigs. It counts as in vivo, guinea pig. The following applies: for Changes in bladder capacity (vs before administration, %): mean ± S.E.M. Here is the method:
Bladder capacity increasing activity of substance P receptor antagonist (bladder capacity increasing action in urethane anesthetized guinea pigs)
A urinary frequency/urine incontinence suppressing effect of a substance having a substance P receptor antagonistic action was shown in terms of the ability to increase bladder capacity of urethane anesthetized male guinea pigs. After emptying the bladder by suction, saline warmed to 39° C. is infused into the bladder at a constant rate (0.3 mL/min.), until voiding. This procedure was repeated to confirm stable bladder capacity (amount of saline injected before induction of voiding). After confirming a stable response, a compound dissolved in DMSO was intravenously administered and the action was measured. Changes in the bladder capacity after drug administration were measured.

In general, melting point refers to the temperature, or range, at which the solid turns liquid. A word on the IC50: it is the concentration needed to halve the response being measured.

T1 sequence (P25103 whole entry): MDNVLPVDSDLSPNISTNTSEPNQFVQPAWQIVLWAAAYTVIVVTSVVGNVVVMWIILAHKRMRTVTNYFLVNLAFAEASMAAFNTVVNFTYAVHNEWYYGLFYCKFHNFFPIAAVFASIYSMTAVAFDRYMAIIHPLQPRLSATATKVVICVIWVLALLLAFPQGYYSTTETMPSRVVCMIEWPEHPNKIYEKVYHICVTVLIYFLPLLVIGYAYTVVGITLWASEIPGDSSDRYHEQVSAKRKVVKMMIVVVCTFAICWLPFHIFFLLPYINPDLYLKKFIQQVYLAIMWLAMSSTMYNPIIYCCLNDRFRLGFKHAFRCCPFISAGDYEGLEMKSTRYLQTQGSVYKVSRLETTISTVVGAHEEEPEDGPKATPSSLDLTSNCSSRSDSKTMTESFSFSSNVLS

With `C[C@@H](O[C@@H]1CCNC[C@@H]1c1ccccc1)c1cc(C(F)(F)F)cc(C(F)(F)F)c1.Cl`, the melting point lay in the range of 150 to 152 °C.
Still for that read-out and setting: with `C[C@H](O[C@H]1CCNC[C@H]1c1ccccc1)c1cc(C(F)(F)F)cc(C(F)(F)F)c1.Cl` the figure was 150 to 152 °C.
With `CCC(=O)N[C@H]1CC[C@H](C(=O)N2CC[C@H](O[C@H](C)c3cc(C(F)(F)F)cc(C(F)(F)F)c3)[C@H](c3ccccc3)C2)CC1` [Example 43, N-[trans-4-[[(3R,4S)-4-[(1R)-1-[3,5-Bis(trifluoromethyl)phenyl]ethoxy]-3-phenylpiperidin-1-yl]carbonyl]cyclohexyl]propanamide], the IC50 on substance P receptor came to 0.039 nM. In addition, the “Changes in bladder capacity (vs before administration, %)” value was determined as 20.8 ± 5.6% in data set [1] (Table 16, 0.01 mg/kg intravenous); 19.3 ± 4.5% in data set [1] (Table 16, 0.03 mg/kg intravenous); 39.9 ± 4.9 % in data set [1] (Table 16, 0.1 mg/kg intravenous); 55.2 ± 13.3 % in data set [1] (Table 16, 0.3 mg/kg intravenous); 74.3 ± 11.1 % in data set [1] (Table 16, 1 mg/kg intravenous).
For `CCNC(=O)[C@H]1CC[C@H](C(=O)N2CC[C@H](O[C@H](C)c3cc(C(F)(F)F)cc(C(F)(F)F)c3)[C@H](c3ccccc3)C2)CC1` [Example 69, trans-4-[[(3R,4S)-4-[(1R)-1-[3,5-Bis(trifluoromethyl)phenyl]ethoxy]-3-phenylpiperidin-1-yl]carbonyl]-N-ethylcyclohexanecarboxamide], the IC50 at substance P receptor was found to be 0.099 nM.
At substance P receptor, `CC(=O)N1CCC(NC(=O)N2CC[C@H](O[C@H](C)c3cc(C(F)(F)F)cc(C(F)(F)F)c3)[C@H](c3ccccc3)C2)CC1` [Example 71, (3R,4S)-N-(1-acetylpiperidin-4-yl)-4-[(1R)-1-[3,5-bis(trifluoromethyl)phenyl]ethoxy]-3-phenylpiperidine-1-carboxamide] gave an IC50 of 0.094 nM.
In the case of `CCC(=O)N1CCC(NC(=O)N2CC[C@H](O[C@H](C)c3cc(C(F)(F)F)cc(C(F)(F)F)c3)[C@H](c3ccccc3)C2)CC1` [Example 72, (3R,4S)-4-[(1R)-1-[3,5-Bis(trifluoromethyl)phenyl]ethoxy]-3-phenyl-N-(1-propionylpiperidin-4-yl)piperidine-1-carboxamide], the IC50 at substance P receptor was found to be 0.091 nM.
On the same count and under the same terms, as for `CC(=O)NC1CCN(C(=O)N2CC[C@H](O[C@H](C)c3cc(C(F)(F)F)cc(C(F)(F)F)c3)[C@H](c3ccccc3)C2)CC1` [Example 73, N-[1-[[(3R,4S)-4-[(1R)-1-[3,5-bis(trifluoromethyl)phenyl]ethoxy]-3-phenylpiperidin-1-yl]carbonyl]piperidin-4-yl]acetamide], the figure is 0.097 nM.
Turning to `CCC(=O)NC1CCN(C(=O)N2CC[C@H](O[C@H](C)c3cc(C(F)(F)F)cc(C(F)(F)F)c3)[C@H](c3ccccc3)C2)CC1` [Example 74, N-[1-[[(3R,4S)-4-[(1R)-1-[3,5-bis(trifluoromethyl)phenyl]ethoxy]-3-phenylpiperidin-1-yl]carbonyl]piperidin-4-yl]propanamide], the concentration for half-maximal inhibition (IC50) at substance P receptor is 0.087 nM.
The compound `C[C@@H](O[C@H]1CCN(C(=O)C2CC(=O)NC(=O)C2)C[C@H]1c1ccccc1)c1cc(C(F)(F)F)cc(C(F)(F)F)c1` [Example 76, 4-[[(3R,4S)-4-[(1R)-1-[3,5-Bis(trifluoromethyl)phenyl]ethoxy]-3-phenylpiperidin-1-yl]carbonyl]piperidine-2,6-dione] had an IC50 at substance P receptor of 0.084 nM.
In turn, `C[C@@H](O[C@H]1CCN(C(=O)C2CC(=O)N(C)C(=O)C2)C[C@H]1c1ccccc1)c1cc(C(F)(F)F)cc(C(F)(F)F)c1` [Example 77, 4-[[(3R,4S)-4-[(1R)-1-[3,5-Bis(trifluoromethyl)phenyl]ethoxy]-3-phenylpiperidin-1-yl]carbonyl]-1-methylpiperidine-2,6-dione] had an IC50 at substance P receptor of 0.062 nM.
Same read-out and setting: with `C[C@@H](O[C@H]1CCN(C(=O)CC2NC(=O)NC2=O)C[C@H]1c1ccccc1)c1cc(C(F)(F)F)cc(C(F)(F)F)c1` (stereo partly drawn) [Example 78, 5-[2-[(3R,4S)-4-[(1R)-1-[3,5-Bis(trifluoromethyl)phenyl]ethoxy]-3-phenylpiperidin-1-yl]-2-oxoethyl]imidazolidine-2,4-dione] the figure was 0.096 nM; with `C[C@@H](O[C@H]1CCN(C(=O)C2CCN(C(=O)Cn3cncn3)CC2)C[C@H]1c1ccccc1)c1cc(C(F)(F)F)cc(C(F)(F)F)c1` [Example 119, (3R,4S)-4-{(1R)-1-[3,5-Bis(trifluoromethyl)phenyl]ethoxy}-3-phenyl-1-([1-(1H-1,2,4-triazol-1-ylacetyl)piperidin-4-yl]carbonyl}piperidine], 0.02 nM; with `C[C@@H](O[C@H]1CCN(C(=O)C2CCN(C(=O)Cn3cccn3)CC2)C[C@H]1c1ccccc1)c1cc(C(F)(F)F)cc(C(F)(F)F)c1` [Example 122, (3R,4S)-4-{(1R)-1-[3,5-Bis(trifluoromethyl)phenyl]ethoxy}-3-phenyl-1-{[1-(1H-pyrazol-1-ylacetyl)piperidin-4-yl]carbonyl}piperidine], 0.021 nM.
For the compound `C[C@@H](O[C@H]1OCCN(Cc2n[nH]c(=O)[nH]2)[C@H]1c1ccc(F)cc1)c1cc(C(F)(F)F)cc(C(F)(F)F)c1` [MK-869, 5-[[(2R,3S)-2-[(1R)-1-[3,5-bis(trifluoromethyl)phenyl]ethoxy]-3-(4-fluorophenyl)-4-morpholinyl]methyl]-1,2-dihydro-3H-1,2,4-triazol-3-one, reference compound], the “Changes in bladder capacity (vs before administration, %)” value in data set [1] (Table 15, 0.1 mg/kg intravenous) is recorded as 14.7 ± 4.8%; in data set [1] (Table 15, 0.3 mg/kg intravenous), 49.5 ± 10.3 %; in data set [1] (Table 15, 1 mg/kg intravenous), 71.2 ± 16.9 %. Moreover, in data set [1] (intravenous administration, urethane anesthetized guinea pigs), the voiding pressure result is recorded as “without affecting the voiding pressure”.
